The test system of data set [1] is Alternaria solani. The experiment in a line: Alternaria solani/Tomato/Preventive (action against Alternaria on tomato). Format: in vivo. As to conditions: 96 h, preventive spray, tomato plants cv. Roter Gnom, assessed after 4 days incubation, untreated controls infected over 80%, read-out: inhibit fungal infestation. As to the method: Alternaria solani/Tomato/Preventive (Action Against Alternaria on Tomato) 4 weeks old tomato plants cv. Roter Gnom are treated with the formulated test compound in a spray chamber. Two days after application tomato plants are inoculated by spraying a spore suspension on the test plants. After an incubation period of 4 days at 22° C./18° C. and 95% r.h. in a greenhouse the disease incidence is assessed.

In data set [2] the test system is Botrytis cinerea. Nature of the data set: Botrytis cinerea/Tomato/Preventive (action against Botrytis on tomato). Format: in vivo. As to conditions: 72 h, preventive spray, tomato plants cv. Roter Gnom, assessed after 3 days incubation, untreated controls infected over 80%, read-out: inhibit fungal infestation. As to the method: Botrytis cinerea/Tomato/Preventive (Action Against Botrytis on Tomato) 4 weeks old tomato plants cv. Roter Gnom are treated with the formulated test compound in a spray chamber. Two days after application tomato plants are inoculated by spraying a spore suspension on the test plants. After an incubation period of 3 days at 20° C. and 95% r. h. in a greenhouse the disease incidence is assessed.

The subject of data set [3] is Puccinia recondite. The experiment in a line: Puccinia recondite/Wheat/Preventive (action against brown rust on wheat). As to conditions: 264 h, preventive spray, wheat plants cv. Arina, assessed 11 days after inoculation, untreated controls infected over 80%, read-out: inhibits fungal infestation. It is filed as in vivo. As to the method: Puccinia recondite/Wheat/Preventive (Action Against Brown Rust on Wheat) 1 week old wheat plants cv. Arina are treated with the formulated test compound in a spray chamber. One day after application wheat plants are inoculated by spraying a spore suspension ([…] uredospores/ml) on the test plants. After an incubation period of 1 day at 20° C. and 95% r h. plants are kept for 10 days 20° C./18° C. (day/night) and 60% r.h. in a greenhouse. The disease incidence is assessed 11 days after inoculation.

The test system of data set [4] is Magnaporthe arisea (Pyricularia oryzae). The experiment in a line: whole plant or invertebrate. Format: in vivo. The conditions noted are these: 144 h, read-out: inhibit fungal infestation.
For data set [5], the system named is Pyrenophora teres (Helminthosporium teres). Nature of the data set: Pyrenophora teres (Helminthosporium teres)/Barley/Preventive (action against net blotch on barley). It is filed as in vivo. The conditions noted are these: 96 h, preventive spray, barley plants cv. Regina, assessed after 4 days incubation, untreated controls infected over 80%, read-out: inhibit fungal infestation. As to the method:
Pyrenophora teres (Helminthosporium teres)/Barley/Preventive (Action Against Net Blotch on Barley) 1-week-old barley plants cv. Regina are treated with the formulated test compound in a spray chamber. Two days after application barley plants are inoculated by spraying a spore suspension (2.6×10^4 conidia/ml) on the test plants. After an incubation period of 4 days at 20° C. and 95% r.h. the disease incidence is assessed.

Data set [6] has as its system Septoria tritici. Nature of the data set: Septoria tritici/Wheat/Preventive (action against Septoria leaf spot on wheat). Format: in vivo. The conditions noted are these: Zymoseptoria tritici, preventive spray, wheat plants cv. Riband, assessed 16-18 days after inoculation, untreated controls infected over 80%, read-out: inhibits fungal infestation. As to the method: Septoria tritici/Wheat/Preventive (Action Against Septoria Leaf Spot on Wheat) 2 weeks old wheat plants cv. Riband are treated with the formulated test compound in a spray chamber. One day after application wheat plants are inoculated by spraying a spore suspension (10^6 conidia/ml) on the test plants. After an incubation period of 1 day at 22° C./21° C. and 95% r.h. plants are kept at 22° C./21° C. and 70% r.h. in a greenhouse. The disease incidence is assessed 16-18 days after inoculation.

The subject of data set [7] is Uncinula necator. The experiment in a line: Uncinula necator/Grape/Preventive (action against powdery mildew on grape). It is filed as in vivo. The conditions noted are these: Erysiphe necator, 168 h, preventive spray, grape seedlings cv. Gutedel, assessed after 7 days incubation, untreated controls infected over 80%, read-out: inhibit fungal infestation. As to the method: Uncinula necator/Grape/Preventive (Action Against Powdery Mildew on Grape) 5 weeks old grape seedlings cv. Gutedel are treated with the formulated test compound in a spray chamber. One day after application grape plants are inoculated by shaking plants infected with grape powdery mildew above the test plants. After an incubation period of 7 days at 24° C./22° C. and 70% r.h. under a light regime of 14/10 h (light/dark) the disease incidence is assessed.

On to `Cc1n[nH]c(=O)c(-c2c(F)cc(F)cc2F)c1-c1cccs1` [I.h.196, 6-methyl-5-thiophen-2-yl-4-(2,4,6-trifluorophenyl)-2H-pyridazin-3-one], for which the melting point (commonly the temperature, or range, at which the solid turns liquid) lay in the range of 249 to 251 °C.

Consider `Cc1nnc(F)c(-c2c(F)cc(F)cc2F)c1-c1cccs1` [I.h.197, 3-fluoro-6-methyl-5-thiophen-2-yl-4-(2,4,6-trifluorophenyl)-pyridazine], for which the melting point was in the range of 71 to 74 °C. For the same compound, in data set [1], the inhibition at 200 ppm is at least 80%. Further, in data set [2], the inhibition at 200 ppm was at least 80%. For the same compound, the inhibition at 200 ppm in data set [3] is at least 80%. In addition, in data set [4], the inhibition at 200 ppm is at least 80%. Besides, the inhibition at 200 ppm in data set [5] was at least 80%. In addition, in data set [6], the inhibition at 200 ppm was at least 80%.

For `Cc1nnc(Cl)c(-c2c(F)cc(F)cc2F)c1-c1cccs1` [I.h.198, 3-chloro-6-methyl-5-thiophen-2-yl-4-(2,4,6-trifluorophenyl)-pyridazine], the melting point was in the range of 90 to 92 °C. In addition, the inhibition at 200 ppm in data set [1] was at least 80%. The inhibition at 200 ppm in data set [2] was at least 80%. For the same compound, the inhibition at 200 ppm in data set [3] is at least 80%. For the same compound, in data set [4], the inhibition at 200 ppm is at least 80%. The inhibition at 200 ppm in data set [5] was at least 80%. Further, the inhibition at 200 ppm in data set [6] is at least 80%. In data set [7], the inhibition at 200 ppm is at least 80%.

Turning to `COc1nnc(C)c(-c2cccs2)c1-c1c(F)cc(F)cc1F` [I.h.199, 3-methoxy-6-methyl-5-thiophen-2-yl-4-(2,4,6-trifluorophenyl)-pyridazine], the melting point was 124 to 125 °C. Moreover, the inhibition at 200 ppm in data set [1] is at least 80%. In addition, in data set [2], the inhibition at 200 ppm is at least 80%. The inhibition at 200 ppm in data set [3] was at least 80%. In addition, the inhibition at 200 ppm in data set [4] was at least 80%. Further, the inhibition at 200 ppm in data set [5] was at least 80%. Further, in data set [6], the inhibition at 200 ppm is at least 80%. Besides, in data set [7], the inhibition at 200 ppm is at least 80%.

The compound `Cc1nnc(C)c(-c2c(F)cc(F)cc2F)c1-c1cccs1` [I.h.200, 3,6-dimethyl-4-thiophen-2-yl-5-(2,4,6-trifluorophenyl)-pyridazine] returned a melting point of 100 to 102 °C. In data set [1], the inhibition at 200 ppm is at least 80%. In data set [2], the inhibition at 200 ppm was at least 80%. For the same compound, in data set [3], the inhibition at 200 ppm is at least 80%. Also, the inhibition at 200 ppm in data set [4] was at least 80%. Besides, the inhibition at 200 ppm in data set [5] is at least 80%. The inhibition at 200 ppm in data set [6] is at least 80%. Further, the inhibition at 200 ppm in data set [7] is at least 80%.

Regarding `COc1cc(F)c(-c2c(OC)nnc(C)c2-c2cccs2)c(F)c1` [I.h.254, 4-(2,6-difluoro-4-methoxyphenyl)-3-methoxy-6-methyl-5-thiophen-2-yl-pyridazine], the melting point was in the range of 130 to 133 °C.

These data come from patent publication US20100113464A1, “NOVEL PYRIDAZINE DERIVATIVES” (SYNGENTA CROP PROTECTION, INC., priority 2006, published 2010).
